Drawing on patent publication US20120309792A1, “TETRAZOLE DERIVATIVES AS NICOTINIC ACETYLCHOLINE RECEPTOR MODULATORS” (NEUROSEARCH A/S, priority 2009, published 2012), this text covers ΔpEC50 for 26 molecules.

The assay addresses T1, human nicotinic acetylcholine receptor subtype a4b2 (Homo sapiens, UniProt P17787+P43681).
T1 construct: expressed in transfected cells
In words: Characterization of hα4β2 positive allosteric modulators using FLIPR. Type of assay: cell-based. Conditions: shift of nicotine pEC50 in presence of 10 μM test compound; HEK-293 cells stably expressing hα4β2; fluo-4 calcium FLIPR. As for the experimental part: Characterization of hα4β2 Positive Allosteric Modulators Using FLIPR
The modulator activity is determined as a fluorescence-based assay using a Fluorometric Imaging Plate Reader (FLIPR) as described below in more detail.
HEK-hα4β2 cells were seeded on poly-D-lysin-coated 384 well microtiter plates and allowed to proliferate for 24 h. Dye loading was performed by incubating cells with 2 μM fluo-4/AM for 1.5 h at room temperature. Dye not taken up by the cells was removed by aspiration, followed by three washing cycles with NMDG Ringer buffer (containing in mM: 140 NMDG, 5 KCl, 1 MgCl2, 10 CaCl2, 10 HEPES, pH 7.4). The microtiter plates were then placed in the FLIPR and subjected to test solutions.
Full concentration-response curves of nicotine were generated in the absence and presence test compound. Background-subtracted nicotine-mediated calcium responses were determined and normalized to maximal nicotine control responses. Nicotine potencies (expressed as pEC50) were calculated and the difference between the functional potency in the absence and presence of test compound was determined (Δ pEC50).
The modulatory activity of compounds of the invention determined as ΔpEC50 values in the presence of 10 μM of test compound are presented in Table 1 below.

T1 sequence (P43681 29-627 limits assumed): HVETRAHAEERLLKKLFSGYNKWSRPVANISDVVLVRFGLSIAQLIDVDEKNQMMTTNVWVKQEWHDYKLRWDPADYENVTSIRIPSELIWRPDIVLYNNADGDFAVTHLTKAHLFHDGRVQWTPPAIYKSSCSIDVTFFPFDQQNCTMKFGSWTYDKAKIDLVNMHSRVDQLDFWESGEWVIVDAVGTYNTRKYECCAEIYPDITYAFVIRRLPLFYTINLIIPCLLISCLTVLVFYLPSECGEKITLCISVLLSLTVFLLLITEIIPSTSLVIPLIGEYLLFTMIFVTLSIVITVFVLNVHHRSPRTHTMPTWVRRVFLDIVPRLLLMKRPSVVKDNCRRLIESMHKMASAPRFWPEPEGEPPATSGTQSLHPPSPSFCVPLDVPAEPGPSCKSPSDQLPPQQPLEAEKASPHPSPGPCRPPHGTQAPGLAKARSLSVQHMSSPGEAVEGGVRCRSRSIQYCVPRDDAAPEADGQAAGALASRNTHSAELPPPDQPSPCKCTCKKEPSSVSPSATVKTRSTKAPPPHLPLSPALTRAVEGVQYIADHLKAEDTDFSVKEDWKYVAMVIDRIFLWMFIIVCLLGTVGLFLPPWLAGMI
T1 sequence (P17787 26-502): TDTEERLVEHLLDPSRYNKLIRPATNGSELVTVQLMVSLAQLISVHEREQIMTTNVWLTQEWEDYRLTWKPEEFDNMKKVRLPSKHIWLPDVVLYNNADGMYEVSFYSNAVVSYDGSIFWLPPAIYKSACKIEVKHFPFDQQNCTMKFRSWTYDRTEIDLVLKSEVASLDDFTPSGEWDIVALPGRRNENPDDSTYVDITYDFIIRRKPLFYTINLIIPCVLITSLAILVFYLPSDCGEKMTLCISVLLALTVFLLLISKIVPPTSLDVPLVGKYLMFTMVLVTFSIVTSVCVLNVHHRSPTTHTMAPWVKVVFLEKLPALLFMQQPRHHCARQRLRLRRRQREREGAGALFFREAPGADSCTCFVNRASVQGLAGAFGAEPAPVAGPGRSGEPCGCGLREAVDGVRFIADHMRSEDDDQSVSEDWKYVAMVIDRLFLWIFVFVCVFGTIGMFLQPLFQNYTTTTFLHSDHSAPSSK

In the case of `Fc1cncc(-n2nnc(-c3cccnc3)n2)c1` [Compound A1, 3-Fluoro-5-[5-(3-pyridyl)tetrazol-2-yl]pyridine], the ΔpEC50 was 1.5.

With `O=C(O)/C=C/C(=O)O.c1cncc(-c2nnn(-c3cccnc3)n2)c1` [Compound B1, 3-[2-(3-Pyridyl)tetrazol-5-yl]pyridine fumarate], the ΔpEC50 is on record as 1.8.

For `Brc1cncc(-n2nnc(-c3cccnc3)n2)c1` [Compound B2, 3-Bromo-5-[5-(3-pyridyl)tetrazol-2-yl]pyridine], the ΔpEC50 is on record as 0.55.

For `COc1cncc(-n2nnc(-c3cccnc3)n2)c1` [Compound B3, 3-Methoxy-5-[5-(3-pyridyl)tetrazol-2-yl]pyridine], the ΔpEC50 is given as −0.16.

For `Cc1ccc(-c2nnn(-c3cccnc3)n2)cn1` [Compound B4, 2-Methyl-5-[2-(3-pyridyl)tetrazol-5-yl]pyridine], the ΔpEC50 was 1.0.

On to `Cc1ccc(-n2nnc(-c3cccnc3)n2)cn1` [Compound B5, 2-Methyl-5-[5-(3-pyridyl)tetrazol-2-yl]pyridine], for which the ΔpEC50 worked out at 1.7.

For `Cc1cncc(-n2nnc(-c3cccnc3)n2)c1` [Compound B6, 3-Methyl-5-[5-(3-pyridyl)tetrazol-2-yl]pyridine], the ΔpEC50 turned out to be 0.16.

Turning to `Cc1ncccc1-n1nnc(-c2cccnc2)n1` [Compound B7, 2-Methyl-3-[5-(3-pyridyl)tetrazol-2-yl]pyridine], the ΔpEC50 amounted to 0.11.

Consider `Cc1ncccc1-c1nnn(-c2cccnc2)n1` [Compound B8, 2-Methyl-3-[2-(3-pyridyl)tetrazol-5-yl]pyridine], for which the ΔpEC50 is listed as −0.29.

Regarding `Fc1ccc(-n2nnc(-c3cccnc3)n2)cn1` [Compound B9, 2-Fluoro-5-[5-(3-pyridyl)tetrazol-2-yl]pyridine], the ΔpEC50 was found to be 1.9.

`Fc1cncc(-c2nnn(-c3cncc(F)c3)n2)c1` [Compound B10, 3-Fluoro-5-[2-(5-fluoro-3-pyridyl)tetrazol-5-yl]pyridine]: the ΔpEC50 is given as 1.3.

Regarding `Fc1cncc(-c2nnn(-c3ccc(F)nc3)n2)c1` [Compound B11, 3-Fluoro-5-[2-(6-fluoro-3-pyridyl)tetrazol-5-yl]pyridine], the ΔpEC50 is given as 1.4.

As for `Fc1cncc(-n2nnc(-c3ccc(F)nc3)n2)c1` [Compound B12, 2-Fluoro-5-[2-(5-fluoro-3-pyridyl)tetrazol-5-yl]pyridine], the ΔpEC50 was determined as 1.6.

As for `Clc1ccc(-c2nnn(-c3cccnc3)n2)cn1` [Compound B13, 2-Chloro-5-[2-(3-pyridyl)tetrazol-5-yl]pyridine], the ΔpEC50 amounted to 1.8.

For `Fc1ccc(-c2nnn(-c3cccnc3)n2)cn1` [Compound B14, 2-Fluoro-5-[2-(3-pyridyl)tetrazol-5-yl]pyridine], the ΔpEC50 is 1.5.

With `Clc1cncc(-c2nnn(-c3cccnc3)n2)c1` [Compound B15, 3-Chloro-5-[2-(3-pyridyl)tetrazol-5-yl]pyridine], the ΔpEC50 stood at 1.7.

On to `Fc1cncc(-c2nnn(-c3cccnc3)n2)c1` [Compound B16, 3-Fluoro-5-[2-(3-pyridyl)tetrazol-5-yl]pyridine], for which the ΔpEC50 was found to be 1.7.

Consider `Clc1ccc(-n2nnc(-c3cccnc3)n2)cn1` [Compound B17, 2-chloro-5-[5-(3-pyridyl)tetrazol-2-yl]pyridine], for which the ΔpEC50 came to 2.0.

Take `Fc1ccc(-n2nnc(-c3cncc(Cl)c3)n2)cn1` [Compound B18, 3-chloro-5-[2-(6-fluoro-3-pyridyl)tetrazol-5-yl]pyridine]: the ΔpEC50 was 1.5.

As to `Fc1cncc(-c2nnn(-c3ccc(Cl)nc3)n2)c1` [Compound B19, 2-chloro-5-[5-(5-fluoro-3-pyridyl)tetrazol-2-yl]pyridine], the ΔpEC50 was found to be 1.6.

Turning to `Fc1cncc(-n2nnc(-c3ccc(Cl)nc3)n2)c1` [Compound B20, 2-chloro-5-[2-(5-fluoro-3-pyridyl)tetrazol-5-yl]pyridine], the ΔpEC50 came to 0.74.

Regarding `Clc1cncc(-n2nnc(-c3cccnc3)n2)c1` [Compound B21, 3-chloro-5-[5-(3-pyridyl)tetrazol-2-yl]pyridine], the ΔpEC50 is listed as 0.8.

With `Fc1cncc(-n2nnc(-c3cncc(Cl)c3)n2)c1` [Compound B22, 3-chloro-5-[2-(5-fluoro-3-pyridyl)tetrazol-5-yl]pyridine], the ΔpEC50 turned out to be 1.1.

With `Brc1cncc(-c2nnn(-c3cccnc3)n2)c1` [Compound B23, 3-bromo-5-[2-(3-pyridyl)tetrazol-5-yl]pyridine], the ΔpEC50 is 1.5.

With `Fc1ccc(-n2nnc(-c3cccnc3F)n2)cn1` [Compound B24, 2-fluoro-3-[2-(6-fluoro-3-pyridyl)tetrazol-5-yl]pyridine], the ΔpEC50 was found to be 1.6.

`Fc1ccc(-n2nnc(-c3cncc(I)c3)n2)cn1` [Compound B25, 2-fluoro-5-[5-(5-iodo-3-pyridyl)tetrazol-2-yl]pyridine]: the ΔpEC50 amounted to 0.58.
